In PMC6089501 (Journal of Medicinal Chemistry, 2018):
Values after ≈ are worked out from the molar mass of the structure shown. Values joined by “and” are separate entries in the source; they are usually repeats but may differ in a detail not shown here. Equal values may be shown once. Read-outs that look alike come from different tables or passages of the source.

Experiments:
Vero cells [1] = settings: read-out: VERO IC50
Protocol: (§1) Compounds were solubilized in DMSO and assayed as a 10-point 3-fold serial dilution. Compounds were incubated with cells for 2 days at 37 °C, 5% CO2. CellTiter-Glo Reagent (Promega) was added and relative luminescent units (RLU) measured.

M. tuberculosis H37Rv [2] = assay: microbe, parasite or virus in culture; type: cell-based, Mycobacterium tuberculosis; settings: for MIC90 / IC90 / MIC: Mycobacterium tuberculosis, H37RV; for MIC90: read-out: MIC (MIC90); for IC90: read-out: TB-IC90_OD GEOM_MEAN
Vero cells [3] = assay: cells; settings: Chlorocebus sabaeus, read-out: VERO IC50
Protocol: as §1

physchem [4] = assay: physchem
physchem [5] = settings: aqueous with cosolvent or surfactant or cyclodextrin, kinetic from dmso stock
in vivo = settings: female, C57 Black, mouse, po, 10 mg/kg
Protocol: Test compound was dosed as a bolus solution intravenously at 3 mg of free base/kilogram (dose volume 5 mL/kg; dose vehicle Saline or 10% DMSO; 40% PEG400; 50% saline) to female C57 Black (n = 3) or dosed orally by gavage as a solution at 10 mg of free base/kilogram (dose volume 10 mL/kg; dose vehicle 10% DMSO; 40% PEG400; 50% distilled water) to female C57 Black (n = 3/dose level). Blood samples were taken from each mouse tail vein at predetermined time points postdose, mixed with two volumes of distilled water, and stored frozen until UPLC/MS/MS analysis. Pharmacokinetic parameters were derived from the blood concentration time curve using PK Solutions software v 2.0 (Summit Research Services, USA).

in vitro = settings: dog, MDCK-MDR1
[6] = tested on: Madin Darby Canine Kidney (MDCK)
M. tuberculosis H37Rv [7] = tested on: M. tuberculosis H37Rv; design: species or system Mycobacterium tuberculosis; settings: in vivo

Row | Compound | IC50 (Vero cells [1]) | CL mouse MEAN (mouse, microsomes) [mL/min/g] | MIC90 (M. tuberculosis H37Rv [2]) [µM] | IC90 (M. tuberculosis H37Rv [2]) [µM] | Cli mouse (female, CD1, mouse, pH 7.4) [mL.min^–1.g^–1] | IC50 (Vero cells [3]) [µM] | chromatographic logD (physchem [4]) | solubility kinetic (physchem [5]) [µM] | also measured
1 | 3-(2,2-Difluoro-2-phenylethoxy)-5-morpholinothiophene-2-carboxamide [Compound 50] | 95 µM | 19.1 | – | – | – | – | – | – | MIC (MIC90) (M. tuberculosis H37Rv [2]): >20 (2) μM
2 | 5-(3-Methylmorpholino)-3-phenethoxythiophene-2-carboxamide [Compound 31] | 77 µM and 79.4 µM | 11.19 | – | – | – | – | – | – | MIC (MIC90) (M. tuberculosis H37Rv [2]): >20 (2) μM
3 | 5-[2-Methoxyethyl(methyl)amino]-3-(2-phenylethoxy)thiophene-2-carboxamide [Compound 32] | > 100 µM | 28.42 | – | – | – | – | – | – | MIC (MIC90) (M. tuberculosis H37Rv [2]): >20 (3) μM
4 | O=C(NO)c1sc(N2CCOCC2)cc1OCCc1ccccc1 [Compound 16, 5-Morpholino-3-(2-phenylethoxy)thiophene-2-carbohydroxamic Acid] | 58 µM | 6.073 | 3.5 (≈ 1.22 µg/mL) | 3.32 | 6 | 58 | – | – | –
5 | c1ccc(CCOc2csc(N3CCOCC3)c2)cc1 [Compound 19, 4-[4-(2-Phenylethoxy)-2-thienyl]morpholine] | 61.7 µM | 37.17 | > 20 | > 20 | 37 | 68 | 1.96 | 174 (≈ 50.2 µg/mL) | –
6 | CNC(=O)c1sc(N2CCOCC2)cc1OCCc1ccccc1 [Compound 21, N-Methyl-5-morpholino-3-(2-phenylethoxy)thiophene-2-carboxamide] | 72.4 µM | 35.49 | 0.12 (≈ 0.0416 µg/mL) | 0.133 | 36 | 91 | 2.44 | – | MIC (M. tuberculosis H37Rv [2]; read-out: MIC WT): 0.08 µM
7 | CCNC(=O)c1sc(N2CCOCC2)cc1OCCc1ccccc1 [Compound 22, N-Ethyl-5-morpholino-3-(2-phenylethoxy)thiophene-2-carboxamide] | 56 µM | 50 | 1.7 (≈ 0.613 µg/mL) | 1.67 | 50 | 56 | – | – | –
8 | O=C(NCC(F)(F)F)c1sc(N2CCOCC2)cc1OCCc1ccccc1 [Compound 23, 5-Morpholino-3-phenethoxy-N-(2,2,2-trifluoroethyl)thiophene-2-carboxamide] | – | 30.19 | 3.4 (≈ 1.41 µg/mL) | 3.32 | 30 | > 100 | 3.11 | 67 (≈ 27.8 µg/mL) | –
9 | O=C(NC1CCC1)c1sc(N2CCOCC2)cc1OCCc1ccccc1 [Compound 24, N-Cyclobutyl-5-morpholino-3-phenethoxythiophene-2-carboxamide] | 24 µM | 0.5 | > 20 | > 20 | 0.5 | 24 | 3.21 | 175 (≈ 67.6 µg/mL) | –
10 | CON(C)C(=O)c1sc(N2CCOCC2)cc1OCCc1ccccc1 [Compound 25, N-Methoxy-N-methyl-5-morpholino-3-phenethoxythiophene-2-carboxamide] | – | 0.5 | 1.8 (≈ 0.678 µg/mL) | 1.7 | 0.5 | – | – | – | AUC (in vivo): 86.7 ng·h/mL; MIC (M. tuberculosis H37Rv [2]; read-out: H37Rv MIC): 0.64 µg/mL; in vitro mouse Clint (mouse, microsomes): <0.5 mL/min/g
11 | CCOC(=O)NC(=O)c1sc(N2CCOCC2)cc1OCCc1ccccc1 [Compound 26, Ethyl N-[5-Morpholino-3-(2-phenylethoxy)thiophene-2-carbonyl]carbamate] | – | 0.9584 | > 20 | > 20 | 1 | > 100 | 2.73 | 65.8 (≈ 26.6 µg/mL) | antitubercular whole cell activity (in words) (M. tuberculosis H37Rv [2]): inactive
12 | NC(=O)c1sc(N2CCCCC2)cc1OCCc1ccccc1 [Compound 28, 3-(2-Phenylethoxy)-5-(1-piperidyl)thiophene-2-carboxamide] | – | 42.23 | 8.9 (≈ 2.94 µg/mL) | 11 | 42 | > 100 | 3.04 | 78.5 (≈ 25.9 µg/mL) | –
13 | NC(=O)c1sc(N2CCOCC2=O)cc1OCCc1ccccc1 [Compound 29, 5-(3-Oxomorpholino)-3-phenethoxythiophene-2-carboxamide] | – | 6.629 | 15 (≈ 5.2 µg/mL) | 10 | 7 | > 100 | – | 79 (≈ 27.4 µg/mL) | drop in potency / activity (M. tuberculosis H37Rv [2]): > 10 fold
14 | CNC(=O)c1sc(N2CC3CC2CO3)cc1OCCc1ccccc1 (stereo not drawn) [Compound 30, 5-(2-Oxa-5-azabicyclo[2.2.1]heptan-5-yl)-N-methyl-3-phenethoxythiophene-2-carboxamide] | 69.2 µM | 12.51 | 3.8 (≈ 1.36 µg/mL) | 3.64 | 13 | 72 | – | – | drop in potency / activity (M. tuberculosis H37Rv [2]): > 5 fold
15 | NC(=O)c1sc(-n2cnc3ccccc32)cc1OCCc1ccccc1 [Compound 33, 5-(Benzimidazol-1-yl)-3-(2-phenylethoxy)thiophene-2-carboxamide] | – | 28.23 | > 20 | > 20 | 28 | > 100 | 2.39 | 27.5 (≈ 9.99 µg/mL) | antitubercular whole cell activity (in words) (M. tuberculosis H37Rv [2]): inactive
16 | NC(=O)c1sc(-n2nccn2)cc1OCCc1ccccc1 [Compound 34, 3-(2-Phenylethoxy)-5-(triazol-2-yl)thiophene-2-carboxamide] | – | 30.46 | 2 (≈ 0.629 µg/mL) | 2.05 | 30 | > 100 | 2.41 | 78.5 (≈ 24.7 µg/mL) | –
17 | NC(=O)c1sc(-c2ccncc2)cc1OCCc1ccccc1 [Compound 35, 3-(2-Phenylethoxy)-5-(4-pyridyl)thiophene-2-carboxamide] | 5.62 µM | 40.84 | 5.3 (≈ 1.72 µg/mL) | 5.08 | 41 | 5.9 | 1.9 | 219 (≈ 71 µg/mL) | MIC (M. tuberculosis H37Rv [2]; read-out: MIC WT): 5.8 µM
18 | NC(=O)c1sc(N2CCOCC2)cc1OCCc1ccccc1F [Compound 38] | 83.2 µM | – | 3.4 (≈ 1.19 µg/mL) | 3.7 | 25 | 84 | 2.05 | – | CL mouse MEAN (female, CD1, mouse, microsomes, pH 7.4): 25.22 mL/min/g
19 | NC(=O)c1sc(N2CCOCC2)cc1OCCc1cccc(F)c1 [Compound 39, 3-[2-(3-Fluorophenyl)ethoxy]-5-morpholinothiophene-2-carboxamide] | – | 17.63 | 0.43 (≈ 0.151 µg/mL) | 0.469 | 18 | > 100 | 2.05 | 219 (≈ 76.7 µg/mL) | MIC (M. tuberculosis H37Rv [2]; read-out: MIC WT): 0.53 µM
20 | NC(=O)c1sc(N2CCOCC2)cc1OC1CCCc2ccccc21 (stereo not drawn) [Compound 52, 5-Morpholino-3-tetralin-1-yloxy-thiophene-2-carboxamide] | – | 5.383 | > 20 | – | 5.4 | 56 | 2.22 | – | –
21 | NC(=O)c1sc(N2CCOCC2)cc1OC1CCc2ccccc21 (stereo not drawn) [Compound 53, 3-Indan-1-yloxy-5-morpholinothiophene-2-carboxamide] | – | 1.393 | > 20 | – | 1.4 | > 100 | 1.15 | – | –
22 | NC(=O)c1ccc(N2CCOCC2)cc1OCCc1ccccc1 [Compound 54, 4-Morpholino-2-phenethoxybenzamide] | – | 12.21 | > 20 | – | 12 | > 100 | 2.11 | – | –
23 | NC(=O)c1cc(N2CCOCC2)ccc1OCCc1cccc(F)c1 [Compound 56, 2-[2-(3-Fluorophenyl)ethoxy]-5-morpholino-benzamide] | – | 6.406 | 2.8 (≈ 0.964 µg/mL) | – | 6.4 | > 100 | – | – | Papp A→B (in vitro): 51 ×10⁻⁶ cm/s; Papp B→A (in vitro): 37 ×10⁻⁶ cm/s; P-glycoprotein (P-gp) efflux (in words) ([6]; MDCK-MDR1): no likely P-glycoprotein (P-gp) efflux issues; permeability (in words) ([6]; MDCK-MDR1): good permeability; P-gp Efflux B→ A/A → B ([6]; dog, MDCK): 0.7
24 | NC(=O)c1nc(N2CCOCC2)ccc1OCCc1ccccc1 [Compound 57, 6-Morpholino-3-(2-phenylethoxy)pyridine-2-carboxamide] | – | 2.315 | 6.9 (≈ 2.26 µg/mL) | – | 2.3 | > 100 | 1.61 | – | –
25 | COCCc1ccc(OCC(O)CNC(C)C)cc1 (stereo not drawn) [Metoprolol, reference compound] | – | – | – | – | – | – | – | – | Papp A→B (in vitro): 55 ×10⁻⁶ cm/s; Papp B→A (in vitro): 40 ×10⁻⁶ cm/s
26 | COc1c(N2C[C@@H]3CCCN[C@@H]3C2)c(F)cc2c(=O)c(C(=O)O)cn(C3CC3)c12 [Moxifloxacin] | – | – | – | – | – | – | – | – | log CFUs per mouse (lungs), individual mice (M. tuberculosis H37Rv [7]): 3.8 log CFU (2×) and 4.4 log CFU and 4.0 log CFU and 3.9 log CFU; log CFUs per mouse (lungs), mean (M. tuberculosis H37Rv [7]): 4.0 log CFU; reduction of CFU lung number with respect to untreated mice (M. tuberculosis H37Rv [7]): 2.8 logs
27 | C=C[C@H]1C[N@@]2CC[C@H]1C[C@@H]2[C@@H](O)c1ccnc2ccc(OC)cc12 [Quinidine, reference compound] | – | – | – | – | – | – | – | – | Papp B→A (in vitro): 89 ×10⁻⁶ cm/s
